Reference: article PMC6856039 (Investigational New Drugs, 2019)
“Also recorded” adds a separate entry of the source.

Tested on: Japanese patients with advanced EGFR mutation-positive NSCLC
Test: Phase I study: dose-limiting toxicities, adverse drug reactions, tolerability
Format: in vivo, human
Conditions: for patients who presented a DLT: Cycle 1 of dose escalation phase; for maximum tolerated dose (MTD): dose escalation phase
Description: This was an open-label, non-randomized, dose escalation phase I study conducted between December 14, 2015 and July 7, 2016 at 12 centers in Japan. The study was conducted in three phases (dose escalation phase, expansion phase, and extension phase), and the design is shown in Supplementary Fig. 1 (Online Resource 1). […] In patients who received the BID regimen, the administration interval was ≥10 h.
The first phase was the dose escalation phase conducted according to a 3 + 3 design, with a minimum of three patients treated at each dose level. […] The dosing rationale was derived from a 4-weeks repeated oral-dose toxicology study in monkeys. […] If none of the initial three patients treated within a dose level experienced a dose-limiting toxicity (DLT) during Cycle 1, the dose was escalated to the next level. […] If none of the three additional patients experienced DLTs after all of them completed Cycle 1, the dose was escalated to the next level. If at least one of the additional three patients developed a DLT, then the dose escalation was stopped and at least six evaluable patients were enrolled at the previous dose level to establish the maximum tolerated dose (MTD). The maximum dose level was defined as Dose Level 9 (150 mg/day). Based on safety and PK results, the dosing schedule could be changed to a BID regimen.
AEs were evaluated and graded according to the National Cancer Institute Common Terminology Criteria for Adverse Events Version 4.03. DLTs were also evaluated and defined as hematologic toxicity (Grade 4 neutropenia lasting >7 days, Grade 4 thrombocytopenia or Grade 3 thrombocytopenia associated with bleeding and requiring blood transfusion, or febrile neutropenia) or non-hematologic toxicity (Grade ≥3 nausea/vomiting uncontrolled by aggressive antiemetic treatment, Grade ≥3 diarrhea lasting >48 h and unresponsive to treatment, Grade ≥3 aspartate aminotransferase/alanine aminotransferase lasting >7 days, corneal disorder worsening by ≥1 grade, or Grade ≥3 other non-hematological toxicity).

`C=CC(=O)N[C@H]1CCc2c(-c3cnc4ccccc4c3)c3c(N)ncnc3n2C1` [TAS-121] was tested, and the “Urticaria, ≥G3” value (12 mg/day BID, N = 5) was 0 n, the “Venous thromboembolism, any grade” value (12 mg/day BID, N = 5) was 0 n and the “Venous thromboembolism, ≥G3” value (12 mg/day BID, N = 5) was 0 n. For the same compound, the “Vomiting, ≥G3” value (12 mg/day BID, N = 5) was 0 n, the “WBC decreased, any grade” value (12 mg/day BID, N = 5) was 0 n and the “WBC decreased, ≥G3” value (12 mg/day BID, N = 5) was 0 n. The “ALT increased, ≥G3” value (12 mg/day QD, N = 3) was 0 n, the “AST increased, ≥G3” value (12 mg/day QD, N = 3) was 0 n and the “Decreased appetite, ≥G3” value (12 mg/day QD, N = 3) was 0 n. The “Diarrhea, ≥G3” value (12 mg/day QD, N = 3) was 0 n, the “Dry skin, ≥G3” value (12 mg/day QD, N = 3) was 0 n and the “Embolic and thrombotic events, any grade” value (12 mg/day QD, N = 3) was 2 n. For the same compound, the “Hemoglobin decreased, any grade” value (12 mg/day QD, N = 3) was 0 n, the “Hemoglobin decreased, ≥G3” value (12 mg/day QD, N = 3) was 0 n and the “Hypoalbuminemia, any grade” value (12 mg/day QD, N = 3) was 0 n. The “Hypoalbuminemia, ≥G3” value (12 mg/day QD, N = 3) was 0 n, the “Interstitial lung disease, any grade” value (12 mg/day QD, N = 3) was 0 n and the “Interstitial lung disease, ≥G3” value (12 mg/day QD, N = 3) was 0 n. For the same compound, the “Malaise, ≥G3” value (12 mg/day QD, N = 3) was 0 n, the “Nausea, any grade” value (12 mg/day QD, N = 3) was 2 n and the “Nausea, ≥G3” value (12 mg/day QD, N = 3) was 0 n. For the same compound, the “Other embolic and thrombotic events, any grade” value (12 mg/day QD, N = 3) was 2 n, the “Other embolic and thrombotic events, ≥G3” value (12 mg/day QD, N = 3) was 0 n and the “Platelet count decreased, any grade” value (12 mg/day QD, N = 3) was 2 n. For the same compound, the “Pruritus, any grade” value (12 mg/day QD, N = 3) was 0 n, the “Pruritus, ≥G3” value (12 mg/day QD, N = 3) was 0 n and the “Pyrexia, ≥G3” value (12 mg/day QD, N = 3) was 0 n. The “Rash maculo-papular, any grade” value (12 mg/day QD, N = 3) was 1 n, the “Rash maculo-papular, ≥G3” value (12 mg/day QD, N = 3) was 0 n and the “Rash, any grade” value (12 mg/day QD, N = 3) was 0 n. For the same compound, the “Rash, ≥G3” value (12 mg/day QD, N = 3) was 0 n, the “Stomatitis, ≥G3” value (12 mg/day QD, N = 3) was 0 n and the “Urticaria, any grade” value (12 mg/day QD, N = 3) was 2 n. The “Urticaria, ≥G3” value (12 mg/day QD, N = 3) was 1 n, the “Vomiting, ≥G3” value (12 mg/day QD, N = 3) was 0 n and the “WBC decreased, any grade” value (12 mg/day QD, N = 3) was 0 n. The “WBC decreased, ≥G3” value (12 mg/day QD, N = 3) was 0 n, the “ALT increased, any grade” value (16 mg/day QD, N = 3) was 0 n and the “ALT increased, ≥G3” value (16 mg/day QD, N = 3) was 0 n. For the same compound, the “AST increased, any grade” value (16 mg/day QD, N = 3) was 0 n, the “AST increased, ≥G3” value (16 mg/day QD, N = 3) was 0 n and the “Decreased appetite, ≥G3” value (16 mg/day QD, N = 3) was 0 n. For the same compound, the “Diarrhea, any grade” value (16 mg/day QD, N = 3) was 2 n, the “Diarrhea, ≥G3” value (16 mg/day QD, N = 3) was 1 n and the “Dry skin, any grade” value (16 mg/day QD, N = 3) was 0 n. For the same compound, the “Dry skin, ≥G3” value (16 mg/day QD, N = 3) was 0 n, the “Embolic and thrombotic events, any grade” value (16 mg/day QD, N = 3) was 1 n and the “Hemoglobin decreased, any grade” value (16 mg/day QD, N = 3) was 1 n. For the same compound, the “Hemoglobin decreased, ≥G3” value (16 mg/day QD, N = 3) was 0 n, the “Hypoalbuminemia, any grade” value (16 mg/day QD, N = 3) was 0 n and the “Hypoalbuminemia, ≥G3” value (16 mg/day QD, N = 3) was 0 n. The “Interstitial lung disease, ≥G3” value (16 mg/day QD, N = 3) was 1 n, the “Malaise, any grade” value (16 mg/day QD, N = 3) was 0 n and the “Malaise, ≥G3” value (16 mg/day QD, N = 3) was 0 n. For the same compound, the “Nausea, any grade” value (16 mg/day QD, N = 3) was 1 n, the “Nausea, ≥G3” value (16 mg/day QD, N = 3) was 0 n and the “Other embolic and thrombotic events, any grade” value (16 mg/day QD, N = 3) was 0 n. For the same compound, the “Other embolic and thrombotic events, ≥G3” value (16 mg/day QD, N = 3) was 0 n, the “Pruritus, ≥G3” value (16 mg/day QD, N = 3) was 0 n and the “Pyrexia, ≥G3” value (16 mg/day QD, N = 3) was 0 n. For the same compound, the “Rash maculo-papular, any grade” value (16 mg/day QD, N = 3) was 1 n, the “Rash maculo-papular, ≥G3” value (16 mg/day QD, N = 3) was 0 n and the “Rash, any grade” value (16 mg/day QD, N = 3) was 0 n. The “Rash, ≥G3” value (16 mg/day QD, N = 3) was 0 n, the “Stomatitis, ≥G3” value (16 mg/day QD, N = 3) was 0 n and the “Urticaria, any grade” value (16 mg/day QD, N = 3) was 1 n. The “Urticaria, ≥G3” value (16 mg/day QD, N = 3) was 1 n, the “Vomiting, ≥G3” value (16 mg/day QD, N = 3) was 0 n and the “WBC decreased, any grade” value (16 mg/day QD, N = 3) was 2 n. For the same compound, the “WBC decreased, ≥G3” value (16 mg/day QD, N = 3) was 0 n, the DLT (BID 8 mg/day) was “Interstitial lung disease^a” and the “Number of patients who experienced a DLT” value (BID 8 mg/day, 6 DLT evaluable patients) was 1. The DLT (BID 12 mg/day) was “Interstitial lung disease^a; also recorded: Platelet count decreased; also recorded: Left ventricular failure”, the “Number of patients who experienced a DLT” value (BID 12 mg/day, 5 DLT evaluable patients) was 2 and the “patients who presented a DLT” value (BID regimen) was “three”. The “maximum tolerated dose (MTD)” value (BID regimen) was 8 mg/day, the “Number of patients who experienced a DLT” value (QD 4 mg/day, 3 DLT evaluable patients) was 0 and the “Number of patients who experienced a DLT” value (QD 8 mg/day, 6 DLT evaluable patients) was 0. For the same compound, the DLT (QD 10 mg/day) was “Drug-induced liver injury”, the “Number of patients who experienced a DLT” value (QD 10 mg/day, 6 DLT evaluable patients) was 1 and the DLT (QD 12 mg/day) was “Platelet count decreased; also recorded: Urticaria”. The “Number of patients who experienced a DLT” value (QD 12 mg/day, 3 DLT evaluable patients) was 2, the DLT (QD 16 mg/day) was “Urticaria; also recorded: Interstitial lung disease^a” and the “Number of patients who experienced a DLT” value (QD 16 mg/day, 3 DLT evaluable patients) was 2. For the same compound, the “patients who presented a DLT” value (QD regimen) was “Five”, the “maximum tolerated dose (MTD)” value (QD regimen) was 10 mg/day and the “AST increased, ≥G3” value (Total, N = 134) was 0 n. The “Decreased appetite, ≥G3” value (Total, N = 134) was 0 n, the “Dry skin, ≥G3” value (Total, N = 134) was 0 n and the “Hypoalbuminemia, ≥G3” value (Total, N = 134) was 0 n. The “Malaise, ≥G3” value (Total, N = 134) was 0 n, the “Nausea, ≥G3” value (Total, N = 134) was 0 n and the “Pruritus, ≥G3” value (Total, N = 134) was 0 n. For the same compound, the “Stomatitis, ≥G3” value (Total, N = 134) was 0 n, the “WBC decreased, ≥G3” value (Total, N = 134) was 0 n and the treatment-related deaths (all patients, during the study) was “No treatment-related deaths”.
